Laboratory results taken from patent US10543189B2, “2-acetylnaphtho[2,3-b]furan -4,9-dione for use on treating cancer” (Boston Biomedical, Inc., priority 2013, dated 2020).

Test: Particle size distribution of milled/micronized Compound 1 crystals
Assay type: physicochemical
Conditions: for Particle Size D50: median size; for Particle Size D90: size for which 90% of particles are equal or smaller
Experimental: For example, Compound 1 crystals were milled (The Retsch Ultra centrifugal Mill ZM 200; Single pass, at 18,000 rpm using 0.25 mm screen) to a median particle size of about 20 micron. Table 3 presents the resultant distribution of particle sizes (Malvern 2000 with the Hydro 2000S wet accessory). The columns present the maximum size of particles in the cumulative percent total presented in the subscript at the header of the column. For example, the column D90 presents the size for which 90% of the particles have an equal or lesser size. The column D50 represents the median size—half of the particles have a greater size, and half of the particles have an equal or lesser size.
For example, Compound 1 crystals were micronized using a jet milling method (4″ Jet Mill, Venturi pressure=40, Mill pressure=100, Feed rate=1304 g/hour) to a median particle size of about 2 micron, as presented in Table 4. Particle size analysis was performed using a dry particle method (Sympatec Helos/KF Particle Size Analyzer).

Row | Compound | Particle Size D10 [microns] | Particle Size D50 [microns] | Particle Size D90 [microns]
1 | CC(=O)c1cc2c(o1)C(=O)c1ccccc1C2=O [Sample A, 2-acetylnaphtho[2,3-b]furan-4,9-dione] | 0.53 | 2.07 | 4.63
2 | CC(=O)c1cc2c(o1)C(=O)c1ccccc1C2=O [Sample B, 2-acetylnaphtho[2,3-b]furan-4,9-dione] | 2.3 | 20.2 | 48.9
